In patent publication US20260265233A1, “BENZOTHIOPHENE DERIVATIVES AS RXFP1 AGONISTS” (BRISTOL-MYERS SQUIBB COMPANY, priority 2021, published 2026) one finds EC50 and first-phase pharmacokinetic half-life data, which are given here for three substances.

The target in series [1] is T1, human RXFP1 (Homo sapiens, UniProt Q9HBX9).
T1 construct: expressed in transfected cells
T1 sequence (Q9HBX9 1-757): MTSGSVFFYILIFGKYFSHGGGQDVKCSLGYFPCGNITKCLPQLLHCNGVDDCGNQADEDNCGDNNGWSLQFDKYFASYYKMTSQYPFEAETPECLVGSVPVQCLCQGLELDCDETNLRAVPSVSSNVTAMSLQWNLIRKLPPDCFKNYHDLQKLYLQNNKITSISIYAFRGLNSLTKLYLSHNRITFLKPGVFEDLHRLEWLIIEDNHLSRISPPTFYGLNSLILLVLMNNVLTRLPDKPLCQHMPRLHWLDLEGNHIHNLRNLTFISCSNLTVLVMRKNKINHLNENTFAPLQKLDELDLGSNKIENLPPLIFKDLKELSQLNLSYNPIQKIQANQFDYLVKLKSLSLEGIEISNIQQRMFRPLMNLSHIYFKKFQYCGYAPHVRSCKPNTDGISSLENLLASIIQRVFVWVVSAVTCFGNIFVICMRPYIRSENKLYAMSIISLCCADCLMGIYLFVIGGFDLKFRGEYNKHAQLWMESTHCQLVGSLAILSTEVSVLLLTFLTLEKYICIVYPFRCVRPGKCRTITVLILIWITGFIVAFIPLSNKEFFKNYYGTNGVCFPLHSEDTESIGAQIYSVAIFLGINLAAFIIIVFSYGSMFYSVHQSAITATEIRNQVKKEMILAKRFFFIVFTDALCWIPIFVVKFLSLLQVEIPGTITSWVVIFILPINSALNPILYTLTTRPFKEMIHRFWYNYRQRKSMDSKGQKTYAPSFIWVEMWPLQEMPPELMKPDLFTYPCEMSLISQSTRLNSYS
The series can be described thus: hRXFP1 HEK293 cAMP assay (HTRF). It counts as cell-based. Conditions: HEK293 cells stably expressing human RXFP1; 30 min at rt; intracellular cAMP by HTRF. A digest of the protocol: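 HEK293 cells stably expressing human RXFP1 treated 30 min at rt with compound (0.010 nM to 50 μM, 2% DMSO) in HBSS/HEPES buffer with 0.5 mM IBMX. Intracellular cAMP measured by HTRF (665/590 nm ratio) against a cAMP standard curve; potency fitted by 4-parameter logistic.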
In general terms: cAMP levels reflect the balance of adenylyl cyclase and phosphodiesterase activity.

For series [2] the following is noted: intravenous (IV) formulation; cited from earlier work.

What is called EC50 is the concentration at which the effect is half-maximal. Higher therefore signals a less potent agent. Consider “(R)-6-chloro- N-(4-fluoro-3- (trifluoromethyl) phenyl)-3-(5- (2- (hydroxymethyl) morpholine- 4-carbonyl)-2- methoxy- benzamido) thieno[3, 2-c]pyridine-2- carboxamide [Example 239]”, for which the response in series [1] was half-maximal at 2100 nM (EC50). Same read-out and setting: as for “N-(4-fluoro-3- (trifluoromethyl) phenyl)-3-(4- methoxy-3′- (morpholino- sulfonyl)-[1,1′- biphenyl]-3- carboxamido)- 6- (trifluoromethyl) benzo[b] thiophene-2- carboxamide [Example 122]”, the figure is 41.8 nM. Take “Serelaxin: "an intravenous (IV) formulation of the recombinant human relaxin peptide with a relatively short first-phase pharmacokinetic half-life of 0.09 hours"”: the first-phase pharmacokinetic half-life in series [2] is 5.4 min.
